The target in one data set is T1, GPR84 Y332F (Homo sapiens, UniProt Q9NQS5, Y332F).
T1 construct: FLAG (N); Gαi2-Cys352Ile (fusion partner) (C); expressed in transfected cells
The data set is described as follows: BRET β-arrestin-1 recruitment assay, HEK293T cells. It counts as cell-based. The protocol: (§1) As a control, cells were transfected with 100:1 ratio of empty plasmid and the appropriate arrestin isoform fused to nano-luciferase. After 24 h, cells were seeded at 50,000 cells per well in poly-D-lysine-coated white 96-well plates and incubated at 37°C overnight. After 24 h, cells were washed twice with Hank’s balanced salt solution (HBSS), pH 7.4, and 10 μl/well of the nano-luciferase substrate coelenterazine-h (Nanolight Technologies) was added to a final concentration of 5 μM. Cells were incubated in the dark for 10 min at 37°C, after which 10 μl/well of the agonist compound was added, and the cells were incubated for another 5 minutes. 15 min after coelenterazine-h addition, reading of emission signals were performed on a PHERAstar FS plate reader (BMG Labtech) at 475 and 535 nm, representing nano-luciferase and eYFP emission signals, respectively. The net bioluminescence resonance energy transfer (BRET) ratio (mBRET) was calculated as follows: mBRET=(BRET^sample−BRET^control)*1000whereBRET=Emission^535nm/Emission^475nm

The target in another data set is T2, GPR84 F187A (Homo sapiens, UniProt Q9NQS5, F187A).
T2 construct: FLAG (N); eYFP (C); expressed in transfected cells; host or cells: HEK293T, transient
The data set is described as follows: BRET β-arrestin-2 recruitment assay, HEK293T cells. It counts as cell-based. To be noted: for EC50: F187A, read-out: β-arrestin-2 pEC50 ± SEM (converted). On the procedure:
as §1
In general terms: Bioluminescence resonance energy transfer reports proximity on the nanometre scale.

Another data set concerns the target T3, GPR84 L336A (Homo sapiens, UniProt Q9NQS5, L336A).
T3 construct: FLAG (N); eYFP (C); expressed in transfected cells; host or cells: HEK293T, transient
The data set is described as follows: BRET β-arrestin-2 recruitment assay, HEK293T cells. To be noted: for EC50: L336A, read-out: β-arrestin-2 pEC50 ± SEM (converted). It counts as cell-based. The protocol: as §1

A further data set addresses T4, GPR84-WT (Homo sapiens, UniProt Q9NQS5).
T4 construct: FLAG (N); eYFP (C); expressed in transfected cells; host or cells: HEK293T, transient
The data set can be described thus: BRET β-arrestin-2 recruitment assay, HEK293T cells. To be noted: Extended Data Table 4, read-out: β-arrestin-2 pEC50 ± SEM (converted). It counts as cell-based. The protocol: as §1

The target in the next data set is GPR84 (Homo sapiens, UniProt Q9NQS5). The data set is described as follows: CHO-K1-based HitHunter cAMP inhibition assay. It counts as cell-based. As to conditions: wild type GPR84; for EC50: CHO-K1 cells, forskolin 25 μM, read-out: cAMP pEC50 ± SEM (converted); for Emax: normalised to capric acid (100 μM), read-out: cAMP %Emax ± SEM. The protocol: CHO-K1 cells stably expressing human GPR84 (DiscoverX 95-0158C2) were seeded in 384-well plates at 15,000 cells per well in 20 μL of F12 medium supplemented with 10% fetal bovine serum (FBS), 19 mM HEPES, and 1% penicillin-streptomycin. After overnight incubation at 37 °C and 5% CO2, the medium was removed and replaced with PBS containing 0.1% BSA. Cells were stimulated for 30 min with forskolin (25 μM) and test compounds prepared in Dulbecco’s PBS (DPBS) with 0.1% BSA. Compounds were dissolved in DMSO and diluted appropriately. cAMP levels were quantified using the HitHunter® cAMP Assay for Small Molecules (DiscoverX 90-0075SM2) according to the manufacturer’s protocol. Luminescence was measured 18 h post-assay using a PHERAstar® FS plate reader (BMG Labtech).

The next data set addresses T5, GPR84 (wild type) (Homo sapiens, UniProt Q9NQS5).
T5 construct: expressed in transfected cells; host or cells: Flp-In T-REx 293 cells (membranes, doxycycline-induced)
The data set is described as follows: Competition binding assay with orthosteric antagonist [3H]140. The protocol:
Binding was initiated by the addition of 5 μg membrane protein generated from Flp-In™ T-REx™ cells induced to express the receptor construct of interest with 100 ng/ml doxycycline. Nonspecific binding of the radioligand was determined in the presence of 10 μM compound 837. All assays were performed at 25 °C for 1 h before termination by the addition of ice-cold phosphate-buffered saline (PBS) and vacuum filtration through GF/C glassfibre filter-bottom 96-well microplates using a UniFilter FilterMate Harvester (Revvity). Each well was washed three times with ice-cold PBS and filters were allowed to dry for 2–3 h before addition of 50 μl of Ultima Gold™ XR. Radioactivity was quantified by liquid scintillation spectrometry.

For a further data set, the target named is T6, Leu336Ala GPR84 (Homo sapiens, UniProt Q9NQS5, L336A).
T6 construct: expressed in transfected cells
The data set is described as follows: pThr263/pThr264 immunoblot of immunoprecipitated GPR84-eYFP. It counts as cell-based. To be noted: 1 μM. On the procedure:
(§2) eYFP-linked receptor constructs were immunoprecipitated from 200 μl cell lysates using GFP-Trap® agarose beads (Proteintech) according to manufacturer’s instructions. Immunocomplexes were washed three times in washing buffer, resuspended in 100 μl 2 × SDS-PAGE sample buffer and incubated at 60 °C for 10 min. Following centrifugation at 2500g for 5 min, 20 μl of immunoprecipitated proteins was resolved by SDS-PAGE on 4% to 12% BisTris gels. After separation, the proteins were transferred electrophoretically onto nitrocellulose membrane, which was then blocked using 5% bovine serum albumin (BSA) in Tris-buffered saline (TBS, 50 mM Tris-Cl, 150 mM NaCl, pH 7.6) for 1 h at room temperature on an orbital shaker. The membrane was then incubated with appropriate primary antibody in 5% BSA in TBS supplemented with 0.1% Tween (TBS-T) overnight at 4 °C. Anti-pThr^263/pThr^264 antiserum was diluted 1:2000 and anti-GFP was diluted 1:10,000. Subsequently, the membrane was washed (3 × 10 min with TBS-T) and incubated for 2 h with anti-rabbit secondary antibody diluted 1:10,000 in 5% BSA in TBS-T. After washing (3 × 10 min with TBS-T), proteins were detected using an Odyssey imaging system (Licor) according to the manufacturer’s instructions.

The next data set has as its target T7, Phe187Ala GPR84 (Homo sapiens, UniProt Q9NQS5, F187A).
T7 construct: expressed in transfected cells
The description is as above. To be noted: 1 μM, compared to OX04954 and OX04539. It counts as cell-based. The protocol:
as §2

Data set [1] can be described thus: pKa measurement (Sirius T3 UV-metric and pH-metric titration). It counts as physicochemical. As to conditions: 25 °C, ionic strength 0.15 M; read-out: measured pKa of the hydroxyl group. On the procedure: OX04529 pKa was determined using a UV-metric titration method on a Sirius T3 with a combination Ag/AgCl pH electrode. 5 μL of OX04529 stock solution was added to 25 μL of a neutral linear buffer. The sample was then pre-acidified to pH < 2.0 using 0.5 M HCl and titrated three times until pH > 12.0 using 0.5 M KOH. Titrations were carried out at a constant ionic strength of 0.15 M (adjusted with KCl) and maintained at 25.0 ±0.5 °C. UV absorbance data across varying wavelengths and pH values were recorded. Molar absorption profiles and species distribution plots were generated in the Sirius T3 software, from which apparent pKa value was calculated.
OX04529 pKa was measured using pH-metric titration on the Sirius T3 system. The solution was pre-acidified to pH < 3.0 with 0.5 M HCl and titrated three times until pH > 11.0 using 0.5 M KOH.

Setting [2] is: competition with [3H]140, Fig. 1f, read-out: pKi (converted).

Where two headings read alike, the source gives them in different places.

GPR84, sequence (Q9NQS5 whole entry): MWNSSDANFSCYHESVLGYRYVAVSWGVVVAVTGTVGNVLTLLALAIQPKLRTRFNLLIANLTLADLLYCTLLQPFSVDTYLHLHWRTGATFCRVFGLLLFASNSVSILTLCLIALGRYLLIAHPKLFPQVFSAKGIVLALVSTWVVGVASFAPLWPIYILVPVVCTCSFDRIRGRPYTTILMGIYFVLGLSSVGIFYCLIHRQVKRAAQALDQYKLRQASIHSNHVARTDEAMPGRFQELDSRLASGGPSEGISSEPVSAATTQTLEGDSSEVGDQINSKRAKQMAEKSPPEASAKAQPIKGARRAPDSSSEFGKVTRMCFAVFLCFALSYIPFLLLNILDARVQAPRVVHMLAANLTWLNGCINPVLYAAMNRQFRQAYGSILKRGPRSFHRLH
T2 sequence (Q9NQS5 whole entry F187A): as the sequence (Q9NQS5 whole entry) above, with F187A counted along it
T5 sequence (Q9NQS5+P04899 fused P04899:C352I): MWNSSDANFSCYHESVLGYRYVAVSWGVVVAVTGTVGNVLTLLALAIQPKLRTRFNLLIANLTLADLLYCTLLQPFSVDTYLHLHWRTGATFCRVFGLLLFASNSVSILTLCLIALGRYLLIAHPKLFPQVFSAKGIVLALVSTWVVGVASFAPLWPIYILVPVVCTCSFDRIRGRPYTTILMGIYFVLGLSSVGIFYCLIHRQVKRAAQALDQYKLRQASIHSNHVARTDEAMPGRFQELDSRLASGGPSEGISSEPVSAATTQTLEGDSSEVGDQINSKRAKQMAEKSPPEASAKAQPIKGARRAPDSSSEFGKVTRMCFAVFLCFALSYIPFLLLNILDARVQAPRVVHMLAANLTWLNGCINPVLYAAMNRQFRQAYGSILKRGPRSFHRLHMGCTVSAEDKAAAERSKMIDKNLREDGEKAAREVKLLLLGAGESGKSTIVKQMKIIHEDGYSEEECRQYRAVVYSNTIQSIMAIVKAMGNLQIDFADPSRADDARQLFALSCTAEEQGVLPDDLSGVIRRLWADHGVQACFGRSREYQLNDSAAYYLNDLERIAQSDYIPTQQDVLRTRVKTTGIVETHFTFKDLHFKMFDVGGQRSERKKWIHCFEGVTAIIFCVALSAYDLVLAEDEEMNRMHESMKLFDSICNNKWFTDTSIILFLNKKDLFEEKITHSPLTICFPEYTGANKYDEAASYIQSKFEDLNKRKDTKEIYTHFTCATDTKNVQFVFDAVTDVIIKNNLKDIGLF
T3 sequence (Q9NQS5 whole entry L336A): as the sequence (Q9NQS5 whole entry) above, with L336A counted along it
T4 sequence (Q9NQS5 whole entry): as the sequence (Q9NQS5 whole entry) above
T1 sequence (Q9NQS5 whole entry Y332F, the tested form may be a part): as the sequence (Q9NQS5 whole entry) above, with Y332F counted along it
T7 sequence (Q9NQS5 whole entry F187A): as the sequence (Q9NQS5 whole entry) above, with F187A counted along it
T6 sequence (Q9NQS5 whole entry L336A): as the sequence (Q9NQS5 whole entry) above, with L336A counted along it

`Cc1cc(CCCc2cc(O)c[n+]([O-])c2)ccc1Cl` [OX04954]: the EC50 at GPR84 Y332F was 50.1 nM; on GPR84 F187A, 4.07 nM; on GPR84 L336A it was 1.32 nM; at GPR84-WT it was 28.2 nM; on GPR84, 0.0126 nM. Further, the Emax – broadly, the size of the effect at its maximum, as opposed to the concentration needed – on GPR84 Y332F (HEK-293T) came out at 40 ± 4%; at GPR84, 98 ± 1.8%. Further, on GPR84 (wild type) (setting [2]), the Ki was 6.76 nM.

As for `[O-][n+]1cc(O)cc(CCc2ccc(Cl)c(C(F)(F)F)c2)c1` [OX04529], the EC50 is 3.09 nM at GPR84 F187A, 1.23 nM on GPR84 L336A, 58.9 nM on GPR84-WT and 0.012 nM at GPR84. The “efficacy in promoting interaction with β-arrestin-2” value at GPR84 F187A (Phe187Ala GPR84, HEK293T) is “substantial efficacy”; on GPR84 L336A (Leu336Ala GPR84, HEK293T) it was “full agonist”. Besides, the Emax at GPR84 was 97 ± 0.2%. The Ki at GPR84 (wild type) (GPR84-Gi2 fusion protein stable cell line, Extended Data Fig. 7, read-out: pKi (WT) (converted)) is 51.3 nM; at GPR84 (wild type) (setting [2]), 10.2 nM. Also, the “phosphorylation of Thr263 and Thr264 (immunoblot)” value on Leu336Ala GPR84 is on record as “full agonist”; on Phe187Ala GPR84, “partial effect”. In addition, in data set [1], the pKa (usually the pH at which an ionisable group is half protonated) is 6.26.
